Experimental data from patent US5162373A, “Methods and improved formulations for the determination and treatment of malignant disease in patients” (priority 1989, dated 1992).

Experiments:
[1] = test system: intestinal epithelium / gut mucosa; assay: Trophic/protective effect on intestinal epithelium, other studies; type: in vivo; conditions: doses as high as 20 g/L
[2] = test system: intestinal epithelium / gut mucosa; conditions: cited from earlier work
[3] = Toxicity of continuous i.v. DFMO infusion in rats (FIG. 3); type: in vivo, rat; conditions: 12 days; 500-2000 mg/kg/day
Excerpt: FIG. 3. […] Bars indicate standard deviation.
In the above described rat model, a continuous infusion of DFMO was given through a central venous catheter.

[4] = design: species or system human (patients with advanced colorectal carcinoma); conditions: human, in vivo
Excerpt: FIG. 4. Platelet counts plotted against days of continuous i.v. DFMO infusion in patients with advanced colorectal carcinoma. […] The paired points are connected by a straight line.
There was no incidence of nausea, vomiting or diarrhea.

platelets = conditions: rat, in vivo
[5] = test system: tumor putrescine; MCA sarcoma

In the case of `NC(=O)CC[C@H](N)C(=O)O` [glutamine, L-glutamine], the “trophic effect on intestinal epithelium” value [1] is given as “trophic effect on intestinal epithelium, especially the ileum”, the “gut epithelium, glutamine added to TPN” value ([2]; 10-20 g/L) is given as “restores gut epithelium” and the “transmucosal migration of bacteria into mesenteric lymph nodes” value ([2]; compared with glutamine deficient formulas) is given as “present transmucosal migration of bacteria into mesenteric lymph nodes”. The “protection of gut mucosa” value ([2]; oral, rats receiving toxic doses of 5FU or methotrexate) was “protected the gut mucosa”.
For `NCCCC(N)(C(=O)O)C(F)F` (stereo not shown) [DFMO, Difluoromethylornithine], the clinical toxicity [3] was “no significant clinical toxicity”, the White cell count [4] was “not affected by either dose” and the decreased hearing acuity [4] was “two patients who experienced decreased hearing acuity”. The hematocrit [4] was “Significant suppression of the hematocrit”, the “nausea, vomiting or diarrhea” value [4] was “no incidence” and the platelet suppression [4] was “significant at both doses”. The “platelet suppression, 8 g vs 6 g dose” value [4] was “significantly greater platelet suppression at the 8 g dose as compared with the 6 g dose”, the “resolution of toxicities after discontinuing infusion” value [4] was “resolved spontaneously within two weeks” and the “platelet suppression, in words” value (platelets) was “significant decrease in platelet count as compared with the saline treatment”. The “decrease in tumor putrescine levels” value ([5]; DFMO infusion) was 90%, the “growth of MCA sarcoma” value ([5]; rat, in vivo) was “reduces the growth rate of an MCA sarcoma but does not produce tumor regression” and the peripheral platelet counts ([5]; rat, in vivo) was “without suppressing peripheral platelet counts”.
In the case of `NCCCCN` [putrescine], the “colonic DNA and protein content” value ([2]; about 50 micromole/100 gram body weight) is listed as “increases in colonic DNA and protein content”, the “DNA and RNA content and protein in ileum” value ([2]; putrescine about 1 micromole) is listed as “increased DNA and RNA content and protein” and the mucosal proliferation ([2]; putrescine: intraluminal infusion) is listed as “stimulation of mucosal proliferation”.
